Experimental data as given in US20160310369A1, “Low Viscosity Hair Care Composition” (The Procter & Gamble Company, priority 2015, published 2016).
Counter-ions that a name gives are not always drawn.

Experiment: Kinematic viscosity of surfactant base formulation with added agent, calibrated Cannon viscometers at 40° C.
Format: physicochemical
Conditions: for Kinematic viscosity at 40 C. [cSt] 2% oil: 2% agent in base formulation; for Kinematic viscosity at 40 C. [cSt] Lowest viscosity achieved: lowest over 2-8% agent, Table 2; for Kinematic viscosity at 40 C. [cSt] 4% oil: 4% agent in base formulation; for Kinematic viscosity at 40 C. [cSt] 6% oil: 6% agent in base formulation; for Kinematic viscosity at 40 C. [cSt] 8% oil: 8% agent in base formulation
From the text: Referring to Tables 1 and 2, the base formulations were made by mixing 1.6% perfume, 24% sodium undecyl sulfate (CAS#1072-24-8) active, 6% lauramidopropyl betaine (CAS#4292-10-8) active and 60.4% deionized water which leaves 8% unfilled for the addition of a viscosity reducing agent (the balance being filled in by distilled water). For all compositions, the surfactant, water and additives including viscosity reducing agents were expected to be in a single phase.
The agents from Tables 1 and 2 were added to the base formulation at a percentage of 2%, 4%, 6%, and 8% into the above surfactant solution. The subsequent formulations were vortexed and put into oven at 60° C. overnight to form homogeneous solution. The viscosities of the formulations were measured with calibrated viscometers (Size 200/350/450) from Cannon Instrument Company (2139 High Tech Road, State College, Pa., USA, 16803).
(§1) After the equilibration, the formulations were drawn to reach the starting mark with a rubber suction bulb and the flow time between the starting mark and end mark was recorded for calculation. Each formulation was measured three times to calculate average and standard deviation. Between samples, viscometer was cleaned with water and acetone to rinse off residual.
Viscosity values were calculated based on the equation:
Viscosity (mm^2/s·(cSt))=Time (s)*Constant (mm^2/s^2·(cSt/s))
The time in the above equation is the flow time recorded in the experiment and the constant numbers for each calibrated viscometer were obtained from the manuals.
The viscosity of the hair care composition can be calculated using the following method: Combine ingredients including surfactants, perfumes, viscosity reducing agents, polymers, other ingredients and the aqueous medium in a vessel. Samples are vortexed and placed into oven at 60° C. overnight to form a homogeneous solution. Samples that show hazing or clouding and formulas that appear macroscopically heterogeneous (e.g. multiple layers) at room temperature are not considered for further analysis and evaluation.
The viscosities of the formulations are measured with calibrated viscometers (Size 200/350/450) from Cannon Instrument Company (2139 High Tech Road, State College, Pa., USA, 16803). Prior to the measurement, the formulations are equilibrated in the viscometer reservoir for 30 min at 40° C. in water bath to ensure a homogeneous temperature is reached in the system.
as §1, with “are” for “were”, “is” for “was”, “samples, the” for “samples,”

Structure (SMILES) | Kinematic viscosity at 40 C. [cSt] 2% oil [cSt] | Kinematic viscosity at 40 C. [cSt] Lowest viscosity achieved [cSt] | Kinematic viscosity at 40 C. [cSt] 4% oil [cSt] | Kinematic viscosity at 40 C. [cSt] 6% oil [cSt] | Kinematic viscosity at 40 C. [cSt] 8% oil [cSt]
CCC(=O)O[C@@H]1C[C@H]2CC[C@]1(C)C2(C)C (racemic) [Iso Bornyl Propionate] | 463.1 | 463 | – | – | –
CCCCCCCC(OC)OC [1,1-Dimethoxyoctane] | 500.7 | 308 | 308.1 | – | –
CC(C)CC=C(C=O)C(C)C [2-Isopropyl-5-methyl-2-hexenal] | 332.3 | 332 | – | – | –
CC(=O)OCCC(C)CCCC(C)C (stereo not drawn) [3,7-Dimethyloctyl Acetate] | 445.7 | 446 | – | – | –
CCC(CC(C)CC)=NO (stereo not drawn) [5-Methyl-3-Heptanone Oxime] | 246.3 | 246 | – | – | –
CCCCOC(=O)c1ccccc1O [Butyl Salicylate] | 367.9 | 368 | – | – | –
CC12CCC(CC1=O)C2(C)C (stereo not drawn) [Camphor Gum] | 365.8 | 127 | 127.2 | – | –
CC(=O)OCCC(C)CCC=C(C)C (stereo not drawn) [Citronellyl Acetate] | 362.7 | 363 | – | – | –
CCC(=O)OC1CC2CC1C1CC=CC21 (stereo not drawn) [Cyclaprop] | 404.2 | 404 | – | – | –
CCCCCCC1C(=O)CCC1C(=O)OC (stereo not drawn) [Dihyro Iso Jasmonate] | 334.9 | 119 | 119.1 | – | –
C=C(C)[C@H]1CC=C(C)CC1 [Dipentene] | 307.6 | 35 | 74.5 | 35.1 | 42.6
CCO [Ethanol, reference compound] | 205.6 | 29 | 111.0 | 50.8 | 29.2
CC12CCC(CC1)C(C)(C)O2 [Eucalyptol] | 527.3 | 203 | 292.9 | 203.1 | –
CC(C)=CCC/C(C)=C/COC(=O)Cc1ccccc1 [Geranyl Phenyl Acetate] | 224.0 | 34 | 76.0 | 34.3 | 36.6
CCCCCCCCCCCCCCCC [Hexadecane] | 21.1 | 18 | 18.1 | – | –
CC(CC=O)CCCC(C)(C)O (stereo not drawn) [Hydroxycitronellal] | 310.8 | 34 | 145.4 | 65.9 | 34.1
CC(C)COC(=O)c1ccccc1O [Iso Butyl Salicylate] | 408.7 | 409 | – | – | –
CCCCCCCCCCCCCC(=O)OC(C)C [Iso Propyl Myristate] | 234.2 | 30 | 53.7 | 30.4 | 45.0
CC(C)CCOC(=O)c1ccccc1O [Isoamyl Salicylate] | 460.3 | 193 | 193.2 | – | –
CCCCCC(=O)OCC(C)C [Isobutyl Hexanoate] | 390.0 | 109 | 177.9 | 140.9 | 109.4
C=C(C)[C@H]1CC=C(C)CC1 [Limonene] | 366.5 | 86 | 166.8 | 97.5 | 86.4
C=CC(C)(CCC=C(C)C)OC(=O)C(C)C (stereo not drawn) [Linalyl Iso Butyrate] | 223.4 | 38 | 73.0 | 37.7 | 39.9
COC(C)(C)C1CC=C(C)CC1 (stereo not drawn) [Orange Flower Ether] | 552.2 | 419 | 418.8 | – | –
CC(=O)CCc1ccc(O)cc1 [Raspberry Ketone] | 151.9 | 33 | 107.4 | 54.0 | 33.0
CCOC(=O)CC(O)(CC(=O)OCC)C(=O)OCC [Triethyl Citrate] | 269.4 | 41 | 136.6 | 66.6 | 40.5
CCCCCC1(C)CCC(C)(C)C1=O (stereo not drawn) [Veloutone] | 260.2 | 47 | 129.1 | 56.3 | 47.3
CC1=CC=C(C(C)C)CC1 [alpha-Terpinene] | 324.4 | 42 | 96.0 | 41.5 | 46.7
CC1=CCC(C(C)C)=CC1 [gamma-Terpinene] | 238.0 | 32 | 65.0 | 31.7 | –
